Laboratory results reported in patent publication US20230398114A1, “METHODS OF TREATING CORONAVIRUS DISEASE AND COMPOUNDS FOR SAME” (priority 2020, published 2023).
Where “and” joins values, the source holds several entries; their conditions need not be identical. Equal entries are not always repeated. Where two headings read alike, the source gives them in different places.

Assays:
human coronavirus NL63 = details: microtubule inhibitor, compared with actin inhibitors; cited from earlier work
[1] = test system: NR-53516 SARS-Related Coronavirus 2 Isolate New York—PV09158/2020; type: cell-based, SARS-CoV-2; details: Vero-76 cells, after 4 days
[2] = test system: USA-WA1/2020 (SARS-CoV-2) virus; type: in vivo, K18-hACE2 mice; details: for Lung (log10 TCID50/mL), group AVG: day 6, 7 mice per group, Mebendazole 50 mg/kg po; for Lung (log10 TCID50/mL), group AVG / Lung (log10 TCID50/mL), individual animals: Imatinib 100 mg/kg, Niclosamide 200 mg/kg, alone or combined; for Lung (log10 TCID50/mL), individual animals: day 6, Mebendazole 50 mg/kg po once daily
Calu-3 = Calu-3 cells, any concentration tested up to 100 μM
[3] = test system: USA-WA1/2020 (SARS-CoV-2) virus; type: in vivo, K18-hACE2 mice; details: for Viral content by lung RT-qPCR, Log10, group AVG / Viral content by lung RT-qPCR, Mean Result, group AVG: day 6, 7 mice per group; for Viral content by lung RT-qPCR, Log10, group AVG / Viral content by lung RT-qPCR, Mean Result, group AVG / Viral content by lung RT-qPCR, Log10 (individual animals) / Viral content by lung RT-qPCR, Mean Result (individual animals): Imatinib 100 mg/kg, Niclosamide 200 mg/kg, alone or combined; for Viral content by lung RT-qPCR, Log10 (individual animals) / Viral content by lung RT-qPCR, Mean Result (individual animals): day 6, oral gavage once daily, Mebendazole 50 mg/kg
[4] = test system: Vero 76 African green monkey kidney cells; details: Vero 76 cells, any concentration tested up to 100 μM
[5] = oral Imatinib dose of 400 mg/day; cited from earlier work
[6] = target: Mast/stem cell growth factor receptor Kit (Homo sapiens, UniProt P10721); details: cited from earlier work
Mast/stem cell growth factor receptor Kit, sequence (P10721 26-976, species assumed): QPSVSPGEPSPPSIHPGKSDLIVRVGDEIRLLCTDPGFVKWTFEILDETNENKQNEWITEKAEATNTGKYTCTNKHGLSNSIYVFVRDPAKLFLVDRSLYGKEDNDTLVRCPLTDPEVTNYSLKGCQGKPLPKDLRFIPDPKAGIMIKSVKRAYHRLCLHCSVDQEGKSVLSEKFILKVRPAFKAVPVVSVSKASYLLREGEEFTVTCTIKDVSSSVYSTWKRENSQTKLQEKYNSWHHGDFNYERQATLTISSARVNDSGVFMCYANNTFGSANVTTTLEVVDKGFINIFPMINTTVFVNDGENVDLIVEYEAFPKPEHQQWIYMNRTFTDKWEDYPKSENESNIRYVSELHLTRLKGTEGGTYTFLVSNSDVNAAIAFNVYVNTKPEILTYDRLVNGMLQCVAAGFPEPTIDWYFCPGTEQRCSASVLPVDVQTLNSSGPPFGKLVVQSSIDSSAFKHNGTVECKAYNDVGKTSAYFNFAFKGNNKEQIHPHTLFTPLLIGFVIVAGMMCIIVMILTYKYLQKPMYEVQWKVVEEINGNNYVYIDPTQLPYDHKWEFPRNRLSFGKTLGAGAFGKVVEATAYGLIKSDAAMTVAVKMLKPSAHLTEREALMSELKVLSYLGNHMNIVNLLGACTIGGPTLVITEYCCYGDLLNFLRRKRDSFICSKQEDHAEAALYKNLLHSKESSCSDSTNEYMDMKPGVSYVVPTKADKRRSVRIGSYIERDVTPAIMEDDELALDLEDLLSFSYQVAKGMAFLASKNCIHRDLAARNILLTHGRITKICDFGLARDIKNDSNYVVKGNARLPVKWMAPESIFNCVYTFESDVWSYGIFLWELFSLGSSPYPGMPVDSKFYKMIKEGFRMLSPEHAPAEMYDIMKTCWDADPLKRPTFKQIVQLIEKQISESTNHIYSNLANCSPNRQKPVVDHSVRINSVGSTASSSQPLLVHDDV

[7] = cited from earlier work
[8] = test system: SARS-CoV-2 (USA-WA1/2020 Isolate); assay: microbe, parasite or virus in culture; type: cell-based; details: Calu-3 cells
SARS-CoV-2 = details: human hepatoma cell line (Huh 7.5 cells) infected with SARS-CoV-2; cited from earlier work
[9] = day 6, Mebendazole 50 mg/kg po, alone or with Imatinib 100 mg/kg po

COC(=O)Nc1nc2ccc(C(=O)c3cccs3)cc2[nH]1 [nocodazole]
reduction of virus entry (human coronavirus NL63): did not

COc1cc2ncnc(Nc3ccc(F)c(Cl)c3)c2cc1OCCCN1CCOCC1 [Gefitinib]
reduction in viral load (Average Virus TCID50/ml*10^6) ([1]; 50 nano molar): 53.54%

Cc1ccc(NC(=O)c2ccc(CN3CCN(C)CC3)cc2)cc1Nc1nccc(-c2cccnc2)n1 [Imatinib]
animals positively affected (lung TCID50) ([2]; day 6, 7 animals per group): a single animal
Lung (log10 TCID50/mL), group AVG [2]: 7.4 log10 TCID50/mL
Lung (log10 TCID50/mL), individual animals [2]: 8.3 log10 TCID50/mL and 7.5 log10 TCID50/mL and 5.3 log10 TCID50/mL and 7.6 log10 TCID50/mL and 8.5 log10 TCID50/mL and 8.0 log10 TCID50/mL and 6.5 log10 TCID50/mL
reduction in viral load (Average Virus TCID50/ml*10^6) ([1]; 10 micro molar): 29.6%
cytotoxicity (MTT) (Calu-3): no cytotoxicity was observed
Viral content by lung RT-qPCR, Log10, group AVG ([3]; Mebendazole 50 mg/kg po): 7.8
Viral content by lung RT-qPCR, Mean Result, group AVG ([3]; Mebendazole 50 mg/kg po): 9.54E+07
Viral content by lung RT-qPCR, Log10 (individual animals) [3]: 7.6 and 7.7 and 7.9 (2×) and 8.0 and 7.3 and 8.5
Viral content by lung RT-qPCR, Mean Result (individual animals) [3]: 3.67E+07 and 5.37E+07 and 7.80E+07 and 9.13E+07 and 2.15E+07 and 7.53E+07 and 3.12E+08
cytotoxicity (MTT) [4]: no cytotoxicity was observed
expected trough plasma concentration [5]: 1.7 µM
known to target (value in brackets, measure not stated) [6]: 16 nM

COC(=O)Nc1nc2ccc(C(=O)c3ccccc3)cc2[nH]1 [Mebendazole]
Lung (log10 TCID50/mL), group AVG [2]: 5.8 log10 TCID50/mL
Lung (log10 TCID50/mL), individual animals [2]: 6.0 log10 TCID50/mL and 5.3 log10 TCID50/mL (2×) and 4.8 log10 TCID50/mL and 5.5 log10 TCID50/mL and 7.3 log10 TCID50/mL and 6.5 log10 TCID50/mL
share of a single oral dose that reaches systemic circulation ([7]; humans, extensive first-pass metabolism): less than 10%
elimination half-life ([7]; in vivo): 3 to 6 h
higher exposure at steady-state ([7]; long-term oral administration): ~3 fold
share of an oral dose excreted in urine ([7]; oral dose): < 2%
inhibition of SARS-CoV-2 (in words) ([8]; 2.3-5000 nM): Complete or near complete inhibition
EC50 ([8]; Severe acute respiratory syndrome coronavirus 2, 24 h pretreatment, read 48 h after inoculation, MOI 0.005, read-out: EC50, inhibition of SARS-CoV-2): 102 nM
Viral content by lung RT-qPCR, Log10, group AVG ([3]; Mebendazole 50 mg/kg po): 7.8
Viral content by lung RT-qPCR, Mean Result, group AVG ([3]; Mebendazole 50 mg/kg po): 4.36E+07
Viral content by lung RT-qPCR, Log10 (individual animals) [3]: 7.9 (2×) and 7.7 and 7.3 (2×) and 7.6 and 7.5
Viral content by lung RT-qPCR, Mean Result (individual animals) [3]: 7.15E+07 and 4.97E+07 and 7.76E+07 and 1.90E+07 and 2.03E+07 and 3.73E+07 and 2.95E+07
Mean % Reduction of Lung Tissue RT-qPCR Titers vs. the Group Mean of Placebo Treated Mice [3, 9]: 44.2%
Percent Reduction of Lung Tissue RT-qPCR Titers (Individual Animals) vs. the Group Mean of Placebo Treated Mice [3, 9]: 8.45% and 36.36% and 0.64% and 75.67% and 74.01% and 52.24% and 62.23%
antiviral activity compared to the Vero E6 cells (SARS-CoV-2): appeared to be lower

O=C(Nc1ccc([N+](=O)[O-])cc1Cl)c1cc(Cl)ccc1O [Niclosamide]
Lung (log10 TCID50/mL), group AVG [2]: 6.1 log10 TCID50/mL
Lung (log10 TCID50/mL), individual animals [2]: 6.3 log10 TCID50/mL and 5.5 log10 TCID50/mL (3×) and 8.5 log10 TCID50/mL and 6.8 log10 TCID50/mL and 4.3 log10 TCID50/mL
Viral content by lung RT-qPCR, Log10, group AVG ([3]; Mebendazole 50 mg/kg po): 7.7
Viral content by lung RT-qPCR, Mean Result, group AVG ([3]; Mebendazole 50 mg/kg po): 8.46E+07
Viral content by lung RT-qPCR, Log10 (individual animals) [3]: 7.6 and 6.7 and 7.5 (2×) and 8.0 and 8.5 and 7.9
Viral content by lung RT-qPCR, Mean Result (individual animals) [3]: 4.28E+07 and 5.54E+06 and 3.04E+07 and 9.85E+07 and 3.08E+08 and 7.72E+07 and 2.97E+07

COc1cc(Nc2c(C#N)cnc3cc(OCCCN4CCN(C)CC4)c(OC)cc23)c(Cl)cc1Cl [Bosutinib]
reduction in viral load (Average Virus TCID50/ml*10^6) ([1]; 50 nano molar): 47.3%

CNC(=O)c1ccccc1Sc1ccc2c(/C=C/c3ccccn3)n[nH]c2c1 [Axitinib]
reduction in viral load (Average Virus TCID50/ml*10^6) ([1]; 500 nano molar): 66.4%
